# Experimental data published in US7179832B2, “Glycogen synthase kinase 3β inhibitor, composition and process for the preparation thereof” (Crystalgenomics, Inc., priority 2003, dated 2007).
# Target: GSK-3β (Homo sapiens, UniProt P49841)
# Experiment: Assay for GSK-3β inhibiting activity (32P-ATP, phospho-CREB peptide substrate, filter paper, CPM)
# Assay type: biochemical
# Conditions: GSK-3β inhibiting activity; 100 nM GSK-3β protein, 100 μM phospho-CREB peptide, 100 μM ATP, 30° C. for 1 hour; read-out: IC50
# Description: Assay for GSK-3β inhibiting activity
# First, PCR (polymerase chain reaction) was carried out using human DNA as a template as well as primers which were designed to correspond to the 3′- and 5′ ends of the polynucleotide coding human GSK-3β gene (Genbank Accession No.: L33801). The BamH1/XhoI fragment of the amplified PCR product thus obtained was inserted into the pGex vector between the BamH1 and XhoI sites, and the vector obtained was transformed into E. coli BL21(DE3). The transformed cells thus obtained was incubated in […] (1% Bacto-trypton, 0.5% yeast extract, 1% NaCl) containing ampicillin ([…]) until the optical density at 600 nm reached about 0.5. The cultured mixture was cooled to 18° C. and isopropyl β-D-thiogalacto-pyranoside (IPTG) was added thereto to a final concentration of 0.5 mM. After 16 hours, the resultant was centrifuged at 10,000×g for 10 min, the collected cells were suspended in a buffer solution (30 mM Tris-HCl (pH 7.5), 100 mM NaCl, 5% glycerol, 2 mM DTT) and the cells were disrupted using Sonic Dismembrator (Fisher, U.S.A.) in a ice bath. The resulting solution was centrifuged at 16,000 rpm for 30 minutes. […] The purified GSK-3β protein was diluted in a buffer solution (20 mM HEPES (pH 7.5), 5% glycerol, 2 mM DTT) to a final concentration of 50 mM NaCl and the resulting solution was subjected to mono S column chromatography (eluent: linear gradient from 0M to 1M NaCl buffer) using mono S column (Pharmacia Biotech, U.S.A.) equilibrated in the same buffer solution to obtain GSK-3β protein.
# The reaction was stopped by adding 5 μl of 5% phosphoric acid to 25 μl of the resulting solution. The resulting mixture was centrifuged at 15,000 rpm for 10 min, 20 μl of the supernatant was added dropwise to Whatman p81 filter paper, and then, the resulting filter paper was washed with 0.5% phosphate buffer for 10 min. The filter paper was further washed 3 times and the enzymatic activity was determined by examining the extent of phospho-CREB peptide phosphorylation which is represented by the unit of count per minute (CPM), measured with a β-counter (Packard, USA).
# The GSK-3β inhibiting activity was then calculated in accordance with the following equation:
# [formula] wherein the blank represents a value obtained without the use of the enzyme and the compound of the present invention, and the control, in the absence of the compound of the present invention.
# GSK-3β, sequence (P49841 whole entry): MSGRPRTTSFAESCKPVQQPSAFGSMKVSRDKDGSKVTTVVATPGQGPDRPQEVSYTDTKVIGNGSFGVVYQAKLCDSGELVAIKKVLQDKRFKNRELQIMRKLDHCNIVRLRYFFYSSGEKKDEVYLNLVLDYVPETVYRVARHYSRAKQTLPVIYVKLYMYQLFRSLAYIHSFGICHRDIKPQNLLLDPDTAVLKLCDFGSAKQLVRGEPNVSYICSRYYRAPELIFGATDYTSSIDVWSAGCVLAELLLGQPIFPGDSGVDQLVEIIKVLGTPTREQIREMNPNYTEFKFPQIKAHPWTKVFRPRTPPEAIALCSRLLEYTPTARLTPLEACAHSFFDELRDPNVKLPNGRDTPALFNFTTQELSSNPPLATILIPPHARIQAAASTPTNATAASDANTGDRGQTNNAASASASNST
row,SMILES,IC50 [µM]
1,O=C(NCCc1ccc(O)cc1)c1ccc(O)c2[nH]c(-c3ccc(Cl)cc3Cl)nc12 [Compound 104],> 1
2,O=C(NCCN1CCOCC1)c1ccc(O)c2[nH]c(-c3ccc(Cl)cc3)nc12 [Compound 78],> 1
3,O=C(NCCNc1ccc([N+](=O)[O-])cn1)c1ccc(O)c2[nH]c(-c3ccc(Cl)cc3)nc12 [Compound 81],> 1
4,Nc1ccc(NC(=O)c2ccc(O)c3[nH]c(-c4ccccc4)nc23)cc1 [Compound 4],> 1
5,CN1CCN(CCOc2ccc(CCNC(=O)c3ccc(O)c4[nH]c(-c5ccc(Cl)cc5)nc34)cc2)CC1 [Compound 95],> 1
6,O=C(NCCCN1CCOCC1)c1ccc(O)c2[nH]c(-c3ccc(Cl)cc3Cl)nc12 [Compound 179],> 1
7,NCCNC(=O)c1ccc(O)c2[nH]c(-c3ccc(Cl)cc3Cl)nc12 [Compound 103],> 5
8,O=C(NCCCN1CCOCC1)c1ccc(O)c2[nH]c(-c3ccccc3)nc12 [Compound 166],> 1
9,Nc1ccc(CCNC(=O)c2ccc(O)c3[nH]c(-c4ccc(Cl)cc4)nc23)cc1 [Compound 73],> 1
10,CCS(=O)(=O)NCCc1ccc(NC(=O)c2ccc(O)c3[nH]c(-c4ccc(Cl)cc4)nc23)cc1 [Compound 20],4.1
11,CCc1nccn1CCCNC(=O)c1ccc(O)c2[nH]c(-c3ccc(F)cc3)nc12 [Compound 189],> 1
12,O=C(NCCc1c[nH]cn1)c1ccc(O)c2[nH]c(-c3ccc(F)cc3Cl)nc12 [Compound 154],> 1
13,O=C(NCCN1CCOCC1)c1ccc(O)c2[nH]c(-c3ccccc3)nc12 [Compound 66],> 1
14,"NC(=O)c1ccc(O)c2[nH]c(-c3ccccc3)nc12 [Compound 1, 7-hydroxy-2-phenyl-1H-benzoimidazole-4-carboxylic acid amide]",> 1
15,O=C(NCCCN1CCCC1=O)c1ccc(O)c2[nH]c(-c3ccc(Cl)cc3)nc12 [Compound 169],> 1
16,O=C(NCCc1c[nH]cn1)c1ccc(O)c2[nH]c(-c3ccc(Cl)cc3)nc12 [Compound 83],> 1
17,NCCc1ccc(NC(=O)c2ccc(O)c3[nH]c(-c4ccccc4)nc23)cc1 [Compound 8],> 1
18,Cc1ccc(S(=O)(=O)NCCc2ccc(NC(=O)c3ccc(O)c4[nH]c(-c5ccc(F)cc5Cl)nc34)cc2)cc1 [Compound 40],> 1
19,O=C(NCCc1c[nH]cn1)c1ccc(O)c2[nH]c(-c3ccc(F)cc3)nc12 [Compound 125],> 1
20,O=C(Nc1ccc(CCNS(=O)(=O)c2cccs2)cc1)c1ccc(O)c2[nH]c(-c3ccc(Cl)cc3Cl)nc12 [Compound 31],> 1
21,CN1CCN(CCNC(=O)c2ccc(O)c3[nH]c(-c4ccc(F)cc4)nc23)CC1 [Compound 118],> 5
22,CCS(=O)(=O)NCCc1ccc(NC(=O)c2ccc(O)c3[nH]c(-c4ccc(F)c(Cl)c4)nc23)cc1 [Compound 44],> 1
23,O=C(NCCc1ccccc1)c1ccc(O)c2[nH]c(-c3ccc(Cl)cc3)nc12 [Compound 71],> 1
24,CCS(=O)(=O)NCCc1ccc(NC(=O)c2ccc(O)c3[nH]c(-c4ccc(F)cc4Cl)nc23)cc1 [Compound 42],> 1
25,O=C(Nc1ccc(CO)cc1)c1ccc(O)c2[nH]c(-c3ccccc3)nc12 [Compound 6],> 1
26,O=C(NCc1ccccc1)c1ccc(O)c2nc(-c3ccccc3)[nH]c12 [Compound 51],0.87

# Now from value to molecule:
row,IC50 [µM],SMILES
1,0.8,O=C(NCCCn1ccnc1-c1ccccc1)c1ccc(O)c2[nH]c(-c3ccc(Cl)cc3)nc12 [Compound 172]
2,0.7,O=C(NCc1ccc([N+](=O)[O-])cc1)c1ccc(O)c2[nH]c(-c3ccc(Cl)cc3Cl)nc12 [Compound 56]
3,0.58,O=C(NCCc1ccccc1)c1ccc(O)c2nc(-c3ccccc3)[nH]c12 [Compound 57]
4,0.49,CCN1CCN(CC(=O)Nc2ccc(CCNC(=O)c3ccc(O)c4[nH]c(-c5ccc(F)cc5Cl)nc34)cc2)CC1 [Compound 157]
5,0.45,CCCCNC(=O)c1ccc(O)c2[nH]c(-c3ccc(Cl)cc3Cl)nc12 [Compound 176]
6,0.33,CCN(CC)CC(=O)Nc1ccc(CCNC(=O)c2ccc(O)c3[nH]c(-c4ccc(F)cc4)nc23)cc1 [Compound 130]
7,0.24,CCCCNC(=O)c1ccc(O)c2[nH]c(-c3ccccc3)nc12 [Compound 162]
8,0.24,O=C(NCCc1ccc(OCCN2CCOCC2)cc1)c1ccc(O)c2[nH]c(-c3ccc(F)cc3)nc12 [Compound 136]
9,0.21,O=C(NCCCn1ccnc1-c1ccccc1)c1ccc(O)c2[nH]c(-c3ccc(Cl)cc3Cl)nc12 [Compound 180]
10,0.2,O=C(Nc1ccc(CCNS(=O)(=O)c2cccs2)cc1)c1ccc(O)c2[nH]c(-c3ccccc3)nc12 [Compound 12]
11,0.19,O=C(NCCc1ccc(N2CCOCC2)cc1)c1ccc(O)c2[nH]c(-c3ccc(F)cc3)nc12 [Compound 132]
12,0.15,CC(C)c1nccn1CCCNC(=O)c1ccc(O)c2[nH]c(-c3ccc(Cl)cc3Cl)nc12 [Compound 184]
13,0.14,CCCCC(=O)Nc1ccc(CCNC(=O)c2ccc(O)c3[nH]c(-c4ccc(F)cc4Cl)nc23)cc1 [Compound 149]
14,0.13,Nc1ccc(CCNC(=O)c2ccc(O)c3[nH]c(-c4ccc(Cl)cc4)nc23)cc1 [Compound 90]
15,0.12,O=C(NCCc1ccc([N+](=O)[O-])cc1)c1ccc(O)c2[nH]c(-c3ccc(Cl)cc3)nc12 [Compound 72]
16,0.12,CN(C)CC(=O)Nc1ccc(CCNC(=O)c2ccc(O)c3[nH]c(-c4ccc(F)cc4)nc23)cc1 [Compound 129]
17,0.1,Cc1nccn1CCCNC(=O)c1ccc(O)c2[nH]c(-c3ccccc3)nc12 [Compound 167]
18,0.09,CC(C)c1nccn1CCCNC(=O)c1ccc(O)c2[nH]c(-c3ccc(F)cc3F)nc12 [Compound 191]

row,IC50 [µM],SMILES
1,0.08,O=C(NCCCn1ccnc1)c1ccc(O)c2[nH]c(-c3ccccc3)nc12 [Compound 165]
2,0.07,CC(=O)Nc1ccc(CCNC(=O)c2ccc(O)c3[nH]c(-c4ccc(F)cc4Cl)nc23)cc1 [Compound 146]
3,0.07,Cc1nccn1CCCNC(=O)c1ccc(O)c2[nH]c(-c3ccc(F)cc3Cl)nc12 [Compound 201]
4,0.06,Cc1nccn1CCCNC(=O)c1ccc(O)c2[nH]c(-c3ccc(Cl)cc3Cl)nc12 [Compound 183]
5,0.06,Cc1ccc(S(=O)(=O)Nc2ccc(CCNC(=O)c3ccc(O)c4[nH]c(-c5ccccc5)nc34)cc2)cc1 [Compound 65]
6,0.05,CS(=O)(=O)Nc1ccc(NCCNC(=O)c2ccc(O)c3[nH]c(-c4ccc(F)cc4)nc23)nc1 [Compound 123]
7,0.05,Cc1ccc(S(=O)(=O)Nc2ccc(CCNC(=O)c3ccc(O)c4[nH]c(-c5ccc(Cl)cc5Cl)nc34)cc2)cc1 [Compound 105]
8,0.04,CS(=O)(=O)NCCc1ccc(NC(=O)c2ccc(O)c3[nH]c(-c4ccccc4)nc23)cc1 [Compound 10]
9,0.04,O=C(NCCCn1cnc(Cl)c1Cl)c1ccc(O)c2[nH]c(-c3ccc(Cl)cc3)nc12 [Compound 174]
10,0.03,CS(=O)(=O)Nc1ccc(CCNC(=O)c2ccc(O)c3[nH]c(-c4ccccc4)nc23)cc1 [Compound 64]
11,0.03,CC(=O)Nc1ccc(CCNC(=O)c2ccc(O)c3[nH]c(-c4ccc(F)cc4)nc23)cc1 [Compound 117]
12,0.02,CCc1nccn1CCCNC(=O)c1ccc(O)c2[nH]c(-c3ccc(F)cc3F)nc12 [Compound 196]
13,0.01,Cc1cn(CCCNC(=O)c2ccc(O)c3[nH]c(-c4ccc(F)cc4Cl)nc23)cn1 [Compound 199]
14,0.008,O=C(NCCCn1ccnc1)c1ccc(O)c2[nH]c(-c3ccc(F)cc3F)nc12 [Compound 192]
15,0.003,O=C(NCCCn1ccnc1)c1ccc(O)c2nc(-c3ccc(F)c(Cl)c3)[nH]c12 [Compound 203]
16,0.002,CS(=O)(=O)Nc1ccc(CCNC(=O)c2ccc(O)c3[nH]c(-c4ccc(F)cc4Cl)nc23)cc1 [Compound 143]
17,0.001,CCS(=O)(=O)Nc1ccc(CCNC(=O)c2ccc(O)c3[nH]c(-c4ccc(F)cc4F)nc23)cc1 [Compound 142]

# Same assay, conditions: IC50 (μM)
row,SMILES,IC50 [µM]
1,O=C(CN1CCOCC1)Nc1ccc(CCNC(=O)c2ccc(O)c3nc(-c4ccc(F)cc4)[nH]c23)cc1 [Compound 134],0.04
2,CS(=O)(=O)NCCc1ccc(NC(=O)c2ccc(O)c3[nH]c(-c4ccc(Cl)cc4Cl)nc23)cc1 [Compound 29],0.08
3,CCS(=O)(=O)Nc1ccc(CCNC(=O)c2ccc(O)c3nc(-c4ccc(Cl)cc4Cl)[nH]c23)cc1 [Compound 109],0.03
